Laboratory results published in patent US8252832B2, “Kinesin inhibitors as cancer therapeutics” (Novartis AG, priority 2007, dated 2012).

Experiments:
RL = test: Cell cycle profile by FACS (propidium iodide DNA content); assay type: cell-based, human; conditions: 24 and 48 hr
Method: Lymphoma cell line cells were treated with the KSP inhibitors of the invention and analyzed by FACs analysis. Approximately 2×10^5 cells were harvested, cell pellets were washed with cold PBS twice and re-suspended in 500 μL cold PBS. Cells were fixed by adding 8 mL cold 80% ethanol while vortexing slowly. After 15 minutes of incubation fixed cells were washed twice with PBS and cell pellets were re-suspended in 1 mL of PI/RNASE staining buffer (BD Pharmingen™ catalog #550825) and incubated for 15 minutes at 37° C. protected from light. Propidium iodide (PI) is a fluorescent vital dye that stains both DNA and RNA. Therefore the RNA must be removed by digestion with ribonuclease (RNase). Stained cells were passed through a cell strainer into a FACS tube to reduce the number of cell aggregates (BD Falcon #352235) prior to FACS analysis. The DNA content of the fixed and stained cells was analyzed by the BD FACSCalibur flow cytometer using the CellQuest software.
Following mitotic arrest, cells have several options including coming out of arrest and dividing normally, undergoing apoptosis directly, or exiting mitosis without cytokinesis (a phenomenon called mitotic slippage). If cells undergo mitotic slippage, they can enter a pseudo-G1 and then either continue to cycle, senesce, or undergo apoptosis. […]

HCT-116 = test: LDH release assay; assay type: cell-based; conditions: Homo sapiens
From the text: (§1) Identification of tumor types that are the most sensitive to the KSP inhibitors of the present invention can be accomplished using an unbiased approach that uses several cell-based assays. The assays chosen were as follows: • CellTiter-Glo®. This is an assay designed to measure ATP concentration in a cell culture, and can be correlated to cell number. Briefly CellTiter-Glo® (Promega Corporation) is a homogeneous method using the single CellTiter-Glo® reagent to detect ATP wherein ATP in the assay drives the activity of a thermostable luciferase to create a luminescent signal which can then be measured and correlated with the number of viable cells. Briefly, for adherent cells, 1,000 to 5,000 cells/well were plated in 96-well plates (100 μl/well) and let to adhere for 24 hours before being treated with drug. For non-adherent cells, 1,000 to 10,000 cells/well were plated in 96-well plates (100 μl/well) and immediately treated with drug. Drug dilutions were prepared in DMSO at 1000 times the final concentration. These dilutions were then diluted 1/100 in growth media before being added to the cells (11 μl/well) to achieve the desired final concentration. After 48 h in a 37° C. tissue culture incubator, the plates were processed for the CellTiter-Glo®assay according to the manufacturer's instructions. Protocol for a 72 hour cell proliferation assay: The 72 hour assay was performed the same way as the 48 hour assay except for the following modifications: For adherent cells, 500 to 5,000 cells/well were plated in 96-well plates (90 μl/well cell growth media) and left to adhere for 24 hours before being treated with drug. For non-adherent cells, 1,000 to 10,000 cells/well were plated in 96-well plates (90 μl/well cell growth media) and immediately treated with drug. Data values presented represent the concentration of test compound required for a 50% reduction in growth. • LDH release. The Cytotoxicity Detection KitPLUS (LDH) assay (Roche Diagnostics, Manheim, Germany) measures the amount of LDH released in the media by dying cells; LDH catalyzes the conversion of lactate into pyruvate. The enzymatic reaction is coupled to a chemical reaction that uses a tetrazolium salt to form a formazan that is red and can be detected by its absorbance at 490 nm. This assay measures the amount of cell death after drug treatment. Cells were plated at 10,000 cells/well in 96-well plates (100 μl/well). Adherent cells were let to adhere for 24 hours before being treated with drug, whereas non-adherent cells were immediately treated with drug. Drug dilutions were prepared in DMSO at 1000 times the final concentration. These dilutions were then diluted 1/100 in growth media before being added to the cells (11 μl/well) to achieve the desired final concentration. […] The media only values were subtracted from all the data points before analysis. Data values presented correspond to the compound concentration wherein LDH output is at half maximal level. • Caspase-Glo® 3/7. The Caspase-Glo® 3/7 Assay (Promega Corporation) is a homogeneous luminescent assay that measures caspase-3/7 activities. The assay provides a proluminescent caspase-3/7 DEVD-aminoluciferin substrate and a thermostable luciferase in a reagent optimized for caspase-3/7 activity, luciferase activity and cell lysis. Adding the single Caspase-Glo® 3/7 Reagent results in cell lysis, followed by caspase cleavage of the substrate. This liberates free aminoluciferin, which is consumed by the luciferase, generating a luminescent signal. The signal is proportional to caspase-3/7 activity. Data values presented correspond to the compound concentration wherein caspase 3/7 activity is at half maximal level.

HT29 = test: LDH release assay; assay type: cell-based; conditions: Homo sapiens, HT-29
From the text: as §1

T47-D = test: LDH release assay; assay type: cell-based; conditions: Homo sapiens, T47D
From the text: as §1

**Q.** Which results are given for `CC(C)(C)[C@H](c1nc(-c2cc(F)ccc2F)cn1Cc1ccccc1)N(CC[C@H](N)CF)C(=O)CO` [Compound IIa]?
**A.** cell cycle profile (DNA content, FACS) (RL): remained arrested in mitosis; EC50 (HCT-116; HCT-116, 24 h): 0.06 nM; EC50 (HCT-116; HCT-116, 48 h): 0.1 nM; EC50 (HCT-116; HCT-116, 72 h): 0.1 nM; EC50 (HT29; HT29, 48 h): 0.35 nM; EC50 (HT29; HT29, 72 h): 0.27 nM; EC50 (T47-D; 48 h): 0.32 nM; EC50 (T47-D; 72 h): 0.33 nM
